According to patent US8946438B2, “Benzamides, production thereof, and use thereof as medicaments” (Boehringer Ingelheim International GmbH, priority 2008, dated 2015):

Target: p38 MAP-kinase (Homo sapiens, UniProt Q16539)
Test: Enzymatic assay: inhibition of p38 MAP-kinase (phosphorylation of GST-tagged ATF2, chemoluminescence bead readout)
Assay type: biochemical
Details: inhibitor 1 μM; activated p38 MAP-kinase 1 nM; 4 h preincubation; ATP 100 μM; ATF2 10 nM; read-out: % inhibitory effect at 1 μM
Procedure: In this, the amount of a substrate phosphorylated by the kinase is quantified. The test is carried out as follows:
The kinase reaction is carried out in the presence of HEPES (20 mM, pH 7), MgCl2 (10 mM), DTT (1 mM) and TWEEN20 (0.01%). First, dimethylsulphoxide or inhibitor (final concentration: 1 μM) dissolved in dimethylsulphoxide are placed in a reaction vessel. Then the activated p38 MAP-kinase (final concentration 1 nM) is added and the mixture is incubated for 4 h at ambient temperature. Then a mixture of substrate (GST-tagged ATF2) and ATP is added and everything is incubated together for a further hour (final concentration ATP: 100 μM; final concentration ATF2: 10 nM).
The concentration of phosphorylated ATF2 is quantified by chemoluminescence-induced light emission. For this, a glutathione donor bead (final concentration: 5 μg/ml) which binds to the gluthathione on the ATF2 and phospho-ATF2 antibodies are added to the reaction mixture (final concentration: 3 nM; this binds the phosphate group added by the kinase reaction) to which a Protein A Acceptor Bead (final concentration: 5 μg/ml) binds. These components are dissolved in a buffer which contains 20 mM HEPES pH 7.0, 200 mM NaCL, 80 mM EDTA as well as 0.3% BSA. This reaction mixture is incubated in the dark for 1 hour at ambient temperature. When these beads come physically close, visible light is emitted which is measured in a photometer at 520-620 nm.
To determine the inhibitory activity of the compounds according to the invention a calculation is made to determine the percentage by which the kinase activity is inhibited at a fixed inhibitor concentration of 1 μM. The maximum activity is determined by non-inhibited kinase. The minimum activity or nonspecific background activity is determined using a reaction mixture without kinase. […] Table 2 summarises the degree of inhibition of the enzyme p38 MAP-kinase—as described hereinbefore—of the compounds according to the invention detailed in the section “Preparation of the final compounds”.

p38 MAP-kinase, sequence (Q16539 whole entry): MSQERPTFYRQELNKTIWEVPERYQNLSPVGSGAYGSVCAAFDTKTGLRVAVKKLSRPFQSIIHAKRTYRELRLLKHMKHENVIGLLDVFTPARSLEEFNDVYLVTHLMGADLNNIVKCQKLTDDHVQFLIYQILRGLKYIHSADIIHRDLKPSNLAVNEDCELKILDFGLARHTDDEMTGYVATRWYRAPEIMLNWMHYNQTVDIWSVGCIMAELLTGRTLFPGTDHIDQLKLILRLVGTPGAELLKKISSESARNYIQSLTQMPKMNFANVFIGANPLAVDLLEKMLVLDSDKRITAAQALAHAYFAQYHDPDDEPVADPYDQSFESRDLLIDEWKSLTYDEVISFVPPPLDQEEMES

| Compound | inhibition at 1 µM [%] |
| --- | --- |
| CNc1cc(Oc2cc(C(=O)Nc3cc(C(C)(C)C)cc(NS(C)(=O)=O)c3OC)ccc2C)ncn1 [3(1), N-(5-tert-butyl-3-methanesulphonylamino-2-methoxy-phenyl)-4-methyl-3-(6-methylamino-pyrimidin-4-yloxy)-benzamide] | 97 |
| COc1c(NC(=O)c2ccc(C)c(Oc3cc(NCCO)ncn3)c2)cc(C(C)(C)C)cc1NS(C)(=O)=O [4(1), N-(5-tert-butyl-3-methanesulphonylamino-2-methoxy-phenyl)-3-[6-(2-hydroxy-ethylamino)-pyrimidin-4-yloxy]-4-methyl-benzamide] | 96.8 |
| COc1c(NC(=O)c2ccc(C)c(Oc3cc(NCCN(C)C)ncn3)c2)cc(C(C)(C)C)cc1NS(C)(=O)=O [4(2), N-(5-tert-butyl-3-methanesulphonylamino-2-methoxy-phenyl)-3-[6-(2-dimethylamino-ethylamino)-pyrimidin-4-yloxy]-4-methyl-benzamide] | 94.8 |
| COc1c(NC(=O)c2ccc(C)c(Oc3cc(N4CCNC(=O)C4)ncn3)c2)cc(C(C)(C)C)cc1NS(C)(=O)=O [4(3), N-(5-tert-butyl-3-methanesulphonylamino-2-methoxy-phenyl)-4-methyl-3-[6-(3-oxo-piperazin-1-yl)-pyrimidin-4-yloxy]-benzamide] | 96.3 |
| COc1c(NC(=O)c2ccc(C)c(Oc3cc(N4CCCC4)ncn3)c2)cc(C(C)(C)C)cc1NS(C)(=O)=O [4(4), N-(5-tert-butyl-3-methanesulphonylamino-2-methoxy-phenyl)-4-methyl-3-(6-pyrrolidin-1-yl-pyrimidin-4-yloxy)-benzamide] | 97.5 |
| COc1c(NC(=O)c2ccc(C)c(Oc3cc(N4CCOCC4)ncn3)c2)cc(C(C)(C)C)cc1NS(C)(=O)=O [4(5), N-(5-tert-butyl-3-methanesulphonylamino-2-methoxy-phenyl)-4-methyl-3-(6-morpholin-4-yl-pyrimidin-4-yloxy)-benzamide] | 97.4 |
| COc1c(NC(=O)c2ccc(C)c(Oc3ccnc(N4CC[C@@H](N(C)C)C4)n3)c2)cc(C(C)(C)C)cc1NS(C)(=O)=O [4(6), (R)-N-(5-tert-butyl-3-methanesulphonylamino-2-methoxy-phenyl)-3-[2-(3-dimethylamino-pyrrolidin-1-yl)-pyrimidin-4-yloxy]-4-methyl-benzamide] | 98 |
| COc1c(NC(=O)c2ccc(C)c(Oc3ccnc(N4CC[C@H](N(C)C)C4)n3)c2)cc(C(C)(C)C)cc1NS(C)(=O)=O [4(7), (S)-N-(5-tert-butyl-3-methanesulphonylamino-2-methoxy-phenyl)-3-[2-(3-dimethylamino-pyrrolidin-1-yl)-pyrimidin-4-yloxy]-4-methyl-benzamide] | 98.6 |
| COc1c(NC(=O)c2ccc(C)c(Oc3ccnc(N4CCC(N(C)C)CC4)n3)c2)cc(C(C)(C)C)cc1NS(C)(=O)=O [4(8), N-(5-tert-butyl-3-methanesulphonylamino-2-methoxy-phenyl)-3-[2-(4-dimethylamino-piperidin-1-yl)-pyrimidin-4-yloxy]-4-methyl-benzamide] | 98.6 |
| COc1c(NC(=O)c2ccc(C)c(Oc3ccnc(NC4CCN(C)CC4)n3)c2)cc(C(C)(C)C)cc1NS(C)(=O)=O [4(9), N-(5-tert-butyl-3-methanesulphonylamino-2-methoxy-phenyl)-4-methyl-3-[2-(1-methyl-piperidin-4-ylamino)-pyrimidin-4-yloxy]-benzamide] | 98.6 |
| COc1c(NC(=O)c2ccc(C)c(Oc3cc(NC4CCN(C)CC4)ncn3)c2)cc(C(C)(C)C)cc1NS(C)(=O)=O [4(10), N-(5-tert-butyl-3-methanesulphonylamino-2-methoxy-phenyl)-4-methyl-3-[6-(1-methyl-piperidin-4-ylamino)-pyrimidin-4-yloxy]-benzamide] | 100 |
| COc1c(NC(=O)c2ccc(C)c(Oc3cc(N4CCC(N(C)C)CC4)ncn3)c2)cc(C(C)(C)C)cc1NS(C)(=O)=O [4(11), N-(5-tert-butyl-3-methanesulphonylamino-2-methoxy-phenyl)-3-[6-(4-dimethylamino-piperidin-1-yl)-pyrimidin-4-yloxy]-4-methyl-benzamide] | 99.1 |
| COc1c(NC(=O)c2ccc(C)c(Oc3cc(N4CC[C@@H](N(C)C)C4)ncn3)c2)cc(C(C)(C)C)cc1NS(C)(=O)=O [4(12), N-(5-tert-butyl-3-methanesulphonylamino-2-methoxy-phenyl)-3-[6-((R)-3-dimethylamino-pyrrolidin-1-yl)-pyrimidin-4-yloxy]-4-methyl-benzamide] | 95.8 |
| COc1c(NC(=O)c2ccc(C)c(Oc3cc(N4CC[C@H](N(C)C)C4)ncn3)c2)cc(C(C)(C)C)cc1NS(C)(=O)=O [4(13), N-(5-tert-butyl-3-methanesulphonylamino-2-methoxy-phenyl)-3-[6-((S)-3-dimethylamino-pyrrolidin-1-yl)-pyrimidin-4-yloxy]-4-methyl-benzamide] | 96.3 |

Results, then the compound that gave them:

| inhibition at 1 µM [%] | Compound |
| --- | --- |
| 99.4 | COc1c(NC(=O)c2ccc(Cl)c(Oc3cc(NC4CCN(C)CC4)ncn3)c2)cc(C(C)(C)C)cc1NS(C)(=O)=O [4(14), N-(5-tert-butyl-3-methanesulphonylamino-2-methoxy-phenyl)-4-chloro-3-[6-(1-methyl-piperidin-4-ylamino)-pyrimidin-4-yloxy]-benzamide] |
| 99.6 | COc1c(NC(=O)c2ccc(Cl)c(Oc3ccnc(NC4CCN(C)CC4)n3)c2)cc(C(C)(C)C)cc1NS(C)(=O)=O [4(15), N-(5-tert-butyl-3-methanesulphonylamino-2-methoxy-phenyl)-4-chloro-3-[2-(1-methyl-piperidin-4-ylamino)-pyrimidin-4-yloxy]-benzamide] |
| 99.4 | COc1c(NC(=O)c2ccc(C)c(Oc3ccnc(N(C)C4CCN(C)CC4)n3)c2)cc(C(C)(C)C)cc1NS(C)(=O)=O [4(16), N-(5-tert-butyl-3-methanesulphonylamino-2-methoxy-phenyl)-4-methyl-3-{2-[methyl-(1-methyl-piperidin-4-yl)-amino]-pyrimidin-4-yloxy}-benzamide] |
| 98.7 | COc1c(NC(=O)c2ccc(C)c(Oc3cc(N(C)C4CCN(C)CC4)ncn3)c2)cc(C(C)(C)C)cc1NS(C)(=O)=O [4(17), N-(5-tert-butyl-3-methanesulphonylamino-2-methoxy-phenyl)-4-methyl-3-{6-[methyl-(1-methyl-piperidin-4-yl)-amino]-pyrimidin-4-yloxy}-benzamide] |
| 99 | COc1c(NC(=O)c2ccc(C)c(Oc3ccnc(N[C@H]4CC[C@H](N(C)C)CC4)n3)c2)cc(C(C)(C)C)cc1NS(C)(=O)=O [4(18), N-(5-tert-butyl-3-methanesulphonylamino-2-methoxy-phenyl)-3-[2-(trans-4-dimethylamino-cyclohexylamino)-pyrimidin-4-yloxy]-4-methyl-benzamide] |
| 98.6 | COc1c(NC(=O)c2ccc(C)c(Oc3ccnc(N(C)C4CCN(C)C4)n3)c2)cc(C(C)(C)C)cc1NS(C)(=O)=O (centres unmarked) [4(19), N-(5-tert-butyl-3-methanesulphonylamino-2-methoxy-phenyl)-4-methyl-3-{2-[methyl-(1-methyl-pyrrolidin-3-yl)-amino]-pyrimidin-4-yloxy}-benzamide] |
